Patent US4601984A, “Process to produce antibiotics X-14873 A, G and H” (Hoffmann-La Roche Inc., priority 1983, dated 1986)
Converted amounts (≈) assume the structure as drawn.

Assays:
[1] = system: Staphylococcus aureus Smith; experiment: Minimum Inhibitory Concentration; type: cell-based
Escherichia coli 257 = experiment: Minimum Inhibitory Concentration; type: cell-based
Salmonella typhi P58A = experiment: Minimum Inhibitory Concentration; type: cell-based; conditions: Salmonella enterica, read-out: Minimum Inhibitory Concentration
Klebsiella pneumoniae A = experiment: Minimum Inhibitory Concentration; type: cell-based
Proteus mirabilis 190 = experiment: Minimum Inhibitory Concentration; type: cell-based
Pseudomonas aeruginosa B = experiment: Minimum Inhibitory Concentration; type: cell-based
Serratia marcescens SM = experiment: Minimum Inhibitory Concentration; type: cell-based
[2] = system: Enterobacter cloacae 5699; experiment: Minimum Inhibitory Concentration; type: cell-based
[3] = system: Trichophyton mentagrophytes; experiment: Minimum Inhibitory Concentration; type: cell-based
Microsporum audouini = experiment: Minimum Inhibitory Concentration; type: cell-based
Streptococcus faecium = experiment: Minimum Inhibitory Concentration; type: cell-based; conditions: Enterococcus faecium, ATCC8043; Streptococcus faecium ATCC 8043
Staphylococcus aureus = experiment: Minimum Inhibitory Concentration; type: cell-based; conditions: ATCC6538P; Staphylococcus aureus ATCC 6538P
Sarcina lutea = experiment: Minimum Inhibitory Concentration; type: cell-based; conditions: Micrococcus luteus, ATCC9341; Sarcina lutea ATCC 9341
Bacillus megaterium = experiment: Minimum Inhibitory Concentration; type: cell-based; conditions: Priestia megaterium, ATCC8011; Bacillus megaterium ATCC 8011
Bacillus sp. E = experiment: Minimum Inhibitory Concentration; type: cell-based; conditions: ATCC27359; Bacillus sp. E ATCC 27359
Bacillus subtilis = experiment: Minimum Inhibitory Concentration; type: cell-based; conditions: NRRL558; Bacillus subtilis NRRL 558
Bacillus sp. TA = experiment: Minimum Inhibitory Concentration; type: cell-based; conditions: ATCC27860; Bacillus sp. TA ATCC 27860
Mycobacterium phlei = experiment: Minimum Inhibitory Concentration; type: cell-based; conditions: Mycolicibacterium phlei, ATCC355; Mycobacterium phlei ATCC 355
Streptomyces cellulosae = experiment: Minimum Inhibitory Concentration; type: cell-based; conditions: ATCC3313; Streptomyces cellulosae ATCC 3313
Paecilomyces varioti = experiment: Minimum Inhibitory Concentration; type: cell-based; conditions: ATCC25820; Paecilomyces varioti ATCC 25820
Penicillum digitatum = experiment: Minimum Inhibitory Concentration; type: cell-based; conditions: Penicillum digitatum ATCC 26821
Candida albicans = experiment: Minimum Inhibitory Concentration; type: cell-based; conditions: NRRL477; Candida albicans NRRL 477
Saccharomyces cerevisiae = experiment: Minimum Inhibitory Concentration; type: cell-based; conditions: ATCC4226; Saccharomyces cerevisiae ATCC 4226
[4] = system: volatile fatty acids produced in the rumen; experiment: Ratio of volatile fatty acids produced in the rumen (GLC); type: in vivo, steer; conditions: for VFA Ratio: C3/(C2 + nC4): ± one standard deviation, 3 animals
ruminants = experiment: Growth promotion and feed utilization in ruminants; type: in vivo, e.g. cattle
Treponema hyodysenteriae = experiment: Minimum inhibitory concentration against the agent of swine dysentery; type: cell-based; conditions: Brachyspira hyodysenteriae
E. tenella = experiment: In vitro coccidiostatic activity; type: cell-based; conditions: Eimeria tenella, read-out: in vitro activity against E. tenella, active concentration
gram-positive bacteria = experiment: Activity against gram-positive bacteria, summary; type: cell-based
[5] = Oral toxicity (LD50) in mice, 24 hours; conditions: mouse, in vivo
Strain X-14873 = experiment: Streptomycin sensitivity of the producing strain (disc); type: cell-based, Streptomyces sp. X-14873; conditions: Streptomyces, X14873; 10 mcg in 1/4" disc
[6] = Medication day 2, 30 g/ton in ration, nonmedicated 0.211 ± 0.019
[7] = Medication day 5, 30 g/ton in ration, nonmedicated 0.248 ± 0.058
[8] = Medication day 7, 30 g/ton in ration, nonmedicated 0.325 ± 0.166
[9] = Medication day 9, 30 g/ton in ration, nonmedicated 0.338 ± 0.164
[10] = Medication day 12, 30 g/ton in ration, nonmedicated 0.293 ± 0.148
[11] = Pre-medication day 1 (baseline)
[12] = Pre-medication day 3 (baseline)
[13] = Pre-medication day 5 (baseline)
[14] = Pre-medication day 8 (baseline)
[15] = Pre-medication day 10 (baseline)

| SMILES | MIC (Streptococcus faecium) | MIC (Staphylococcus aureus) | MIC (Sarcina lutea) | MIC (Bacillus megaterium) | MIC (Bacillus sp. E) | MIC (Bacillus subtilis) | MIC (Bacillus sp. TA) | MIC (Mycobacterium phlei) | MIC (Streptomyces cellulosae) | MIC (Paecilomyces varioti) | MIC (Penicillum digitatum) | MIC (Candida albicans) | MIC (Saccharomyces cerevisiae) | VFA Ratio: C3/(C2 + nC4) [4, 6] | VFA Ratio: C3/(C2 + nC4) [4, 7] | VFA Ratio: C3/(C2 + nC4) [4, 8] | VFA Ratio: C3/(C2 + nC4) [4, 9] | VFA Ratio: C3/(C2 + nC4) [4, 10] | effect on growth of gram-positive bacteria (gram-positive bacteria) | LD50 at 24 h [5] | other results |
| --- | --- | --- | --- | --- | --- | --- | --- | --- | --- | --- | --- | --- | --- | --- | --- | --- | --- | --- | --- | --- | --- |
| CCC(C(=O)C(C)C(O)C(C)C1OC(O)(CC(=O)O)C(CC)C(O)C1C)C1OC(C)(C2(O)OC(CC)(C(O)CC)CC2C)CC1C (stereo not drawn) [Antibiotic X-14873A] | 0.1 µg/mL (≈ 0.152 µM) | 6.3 µg/mL (≈ 9.56 µM) | 3 µg/mL (≈ 4.55 µM) | 3 µg/mL (≈ 4.55 µM) | 0.8 µg/mL (≈ 1.21 µM) | 3 µg/mL (≈ 4.55 µM) | 3 µg/mL (≈ 4.55 µM) | 3 µg/mL (≈ 4.55 µM) | 12.5 µg/mL (≈ 19 µM) | 125 µg/mL (≈ 190 µM) | 500 µg/mL (≈ 759 µM) | 62.5 µg/mL (≈ 94.9 µM) | 500 µg/mL (≈ 759 µM) | 0.445 ± 0.075 | 0.584 ± 0.328 | 0.679 ± 0.448 | 0.642 ± 0.387 | 0.495 ± 0.242 | adversely affecting the growth of certain gram-positive bacteria | 120 mg/kg | MIC [1]: 64 µg/mL (≈ 97.1 µM); MIC (Escherichia coli 257): 128 µg/mL (≈ 194 µM); MIC (Salmonella typhi P58A): 128 µg/mL (≈ 194 µM); MIC (Klebsiella pneumoniae A): 128 µg/mL (≈ 194 µM); MIC (Proteus mirabilis 190): 128 µg/mL (≈ 194 µM); MIC (Pseudomonas aeruginosa B): 128 µg/mL (≈ 194 µM); MIC (Serratia marcescens SM): 128 µg/mL (≈ 194 µM); MIC [2]: 128 µg/mL (≈ 194 µM); MIC [3]: 100 µg/mL (≈ 152 µM); MIC (Microsporum audouini): 100 µg/mL (≈ 152 µM); increase over control of the volatile fatty acid ratio vs lasalocid ([4]; 30 g/ton, compared with lasalocid): greater increase over control of the volitile fatty acid ratio than lasalocid; VFA Ratio: C3/(C2 + nC4) [4, 11]: 0.213 ± 0.016; VFA Ratio: C3/(C2 + nC4) [4, 12]: 0.235 ± 0.036; VFA Ratio: C3/(C2 + nC4) [4, 13]: 0.234 ± 0.042; VFA Ratio: C3/(C2 + nC4) [4, 14]: 0.245 ± 0.046; VFA Ratio: C3/(C2 + nC4) [4, 15]: 0.216 ± 0.038; efficiency of feed utilization in ruminant animals (ruminants; administered orally): increases the efficiency of feed utilization; activity as a growth promotant in ruminants (ruminants; ruminants, e.g. cattle): exhibit activity as a growth promotant in ruminants; MIC (Treponema hyodysenteriae): 5 µg/mL (≈ 7.59 µM); minimal effective concentration (E. tenella): 200 µg/mL |
| CCC(C(=O)C(C)C(O)C(C)C1OC(C)(O)C(CC)C(O)C1C)C1OC(C)(C23OC(CC)C(CC)(CC2C)O3)CC1C (stereo not drawn) [Antibiotic X-14873G] | 63 µg/mL (≈ 106 µM) | > 1000 µg/mL | > 1000 µg/mL | > 1000 µg/mL | 8 µg/mL (≈ 13.4 µM) | > 1000 µg/mL | > 1000 µg/mL | > 1000 µg/mL | > 1000 µg/mL | > 1000 µg/mL | > 1000 µg/mL | > 1000 µg/mL | > 1000 µg/mL | – | – | – | – | – | adversely affecting the growth of certain gram-positive bacteria | 4000 mg/kg | – |
| CCC(C(=O)C(C)C(O)C(C)C1OC(C)(O)C(CC)C(O)C1C)C1OC(C)(C2(O)OC(CC)(C(O)CC)CC2C)CC1C (stereo not drawn) [Antibiotic X-14873H] | 2 µg/mL (≈ 3.25 µM) | 8 µg/mL (≈ 13 µM) | 16 µg/mL (≈ 26 µM) | 4 µg/mL (≈ 6.51 µM) | 2 µg/mL (≈ 3.25 µM) | 16 µg/mL (≈ 26 µM) | 8 µg/mL (≈ 13 µM) | > 1000 µg/mL | > 1000 µg/mL | > 1000 µg/mL | > 1000 µg/mL | > 1000 µg/mL | > 1000 µg/mL | – | – | – | – | – | adversely affecting the growth of certain gram-positive bacteria | 4000 mg/kg | – |
| CC[C@@H](C(=O)[C@@H](C)[C@@H](O)[C@H](C)CCc1ccc(C)c(O)c1C(=O)O)[C@H]1O[C@](CC)([C@H]2CC[C@](O)(CC)[C@H](C)O2)C[C@@H]1C [Lasalocid, lasalocid, reference compound] | – | – | – | – | – | – | – | – | – | – | – | – | – | 0.376 ± 0.109 | 0.390 ± 0.073 | 0.373 ± 0.015 | 0.381 ± 0.064 | 0.372 ± 0.056 | – | – | VFA Ratio: C3/(C2 + nC4) [4, 11]: 0.229 ± 0.013; VFA Ratio: C3/(C2 + nC4) [4, 12]: 0.255 ± 0.051; VFA Ratio: C3/(C2 + nC4) [4, 13]: 0.244 ± 0.060; VFA Ratio: C3/(C2 + nC4) [4, 14]: 0.236 ± 0.041; VFA Ratio: C3/(C2 + nC4) [4, 15]: 0.224 ± 0.011 |
| [H]/N=C(/N)N[C@H]1[C@H](O)[C@@H](O)[C@H](O[C@@H]2O[C@@H](C)[C@](O)(C=O)[C@H]2O[C@@H]2O[C@@H](CO)[C@H](O)[C@@H](O)[C@@H]2NC)[C@@H](N/C(N)=N\[H])[C@@H]1O [Streptomycin] | – | – | – | – | – | – | – | – | – | – | – | – | – | – | – | – | – | – | – | – | zone of inhibition at 10 µg/disc (Strain X-14873): 13 mm |
